In patent US9815847B2 (Icahn School of Medicine at Mount Sinai, priority 2013, dated 2017):

Key:
BXPC-3 = assay: Cytotoxicity assay, dose response end point; format: cell-based; details: Homo sapiens; BXPC-3, pancreatic adenocarcinoma; 96 h
Description: (§1) The following tumor cell lines were tested using a dose response end point assay system with compound (8h). The cells were grown in either DMEM or RPMI supplemented with 10% fetal bovine serum and 1 unit/mL Penicillin-Streptomycin solution. The tumor cells were plated into 6-well dishes at a cell density of 1.0×10^5 cells/mL/well and the test compound was added 24 h. later at various concentrations. Cell counts were determined from duplicate wells after 96 h. of treatment. The total number of viable cells was determined by trypan blue exclusion.

HL-60 = assay: Cytotoxicity assay, dose response end point; format: cell-based; details: Homo sapiens; HL-60, promyelocytic leukaemia; 96 h
Description: as §1

HT-29 = assay: Cytotoxicity assay, dose response end point; format: cell-based; details: Homo sapiens; HT-29, colonic adenocarcinoma; 96 h
Description: as §1

CEM/C2 = assay: Cytotoxicity assay, dose response end point; format: cell-based; details: Homo sapiens; CEM/C2, T-cell leukemia; 96 h
Description: as §1

U266 = assay: Cytotoxicity assay, dose response end point; format: cell-based; details: Homo sapiens, U-266; U266, multiple myeloma; 96 h
Description: as §1

MES-SA/DX5 = assay: Cytotoxicity assay, dose response end point; format: cell-based; details: Homo sapiens; MES-SA/DX5, Uterine sarcoma; 96 h
Description: as §1

MES-SA = assay: Cytotoxicity assay, dose response end point; format: cell-based; details: Homo sapiens, uterine sarcoma, 96 h
Description: as §1

U937 = assay: Cytotoxicity assay, dose response end point; format: cell-based; details: Homo sapiens, U-937; U937, histiocytic lymphoma; 96 h
Description: as §1

HCT-116 = assay: Cytotoxicity assay, dose response end point; format: cell-based; details: Homo sapiens; HCT-116, colon cancer; 96 h
Description: as §1

DU145 = assay: Cytotoxicity assay, dose response end point; format: cell-based; details: Homo sapiens, DU-145; DU145, prostate carcinoma; 96 h
Description: as §1

CEM = assay: Cytotoxicity assay, dose response end point; format: cell-based; details: Homo sapiens, CCRF-CEM, T-cell leukemia, 96 h
Description: as §1

HPAF-II = assay: Cytotoxicity assay, dose response end point; format: cell-based; details: Homo sapiens, pancreatic adenocarcinoma, 96 h
Description: as §1

32D-T315I = assay: Cytotoxicity assay, dose response end point; format: cell-based; details: chronic myelogenous leukemia, 96 h
Description: as §1

MIA-PaCa-2 = assay: Cytotoxicity assay, dose response end point; format: cell-based; details: Homo sapiens; MIA-PaCa-2, pancreatic carcinoma; 96 h
Description: as §1

PANC 03.27 = assay: Cytotoxicity assay, dose response end point; format: cell-based; details: Homo sapiens, PANC-03-27; PANC 03.27, Pancreatic adenocarcinoma; 96 h
Description: as §1

ASPC-1 = assay: Cytotoxicity assay, dose response end point; format: cell-based; details: Homo sapiens, ASPC1; ASPC-1, pancreatic adenocarcinoma; 96 h
Description: as §1

HCT-15 = assay: Cytotoxicity assay, dose response end point; format: cell-based; details: Homo sapiens; HCT-15, Dukes' type C colorectal adenocarcinoma; 96 h
Description: as §1

MOLT-4 = assay: Cytotoxicity assay, dose response end point; format: cell-based; details: Homo sapiens; MOLT-4, acute lymphoblastic leukemia; 96 h
Description: as §1

Z138C = assay: Cytotoxicity assay, dose response end point; format: cell-based; details: mantle cell lymphoma, 96 h
Description: as §1

MEK2 = biological target: T1, MEK2 (Homo sapiens, UniProt P36507); assay: Kinase inhibition assay; format: biochemical; details: 10 μM ATP; 5-dose IC50 mode
T1 construct: purchased Reaction Biology Corporation
T1 sequence (P36507 whole entry): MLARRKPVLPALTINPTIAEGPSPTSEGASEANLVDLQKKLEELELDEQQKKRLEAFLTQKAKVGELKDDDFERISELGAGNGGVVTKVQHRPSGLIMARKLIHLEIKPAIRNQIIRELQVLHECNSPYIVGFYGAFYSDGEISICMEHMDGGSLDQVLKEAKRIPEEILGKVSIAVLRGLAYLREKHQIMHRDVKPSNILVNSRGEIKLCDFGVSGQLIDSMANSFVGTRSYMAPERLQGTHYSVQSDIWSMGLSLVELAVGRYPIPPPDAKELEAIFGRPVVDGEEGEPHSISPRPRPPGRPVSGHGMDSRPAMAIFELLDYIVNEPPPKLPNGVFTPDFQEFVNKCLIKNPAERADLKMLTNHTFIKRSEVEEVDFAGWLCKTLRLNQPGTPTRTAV
Description: Kinase assays were performed at Reaction Biology Corporation. To a freshly prepared buffer solution was added the target kinase at a concentration of […]. The contents were mixed gently, and then compound 8h dissolved in DMSO was added to the reaction mixture in the appropriate concentration. The mixture was incubated at room temperature for 30 min. prior to addition of ATP to initiate the reaction. Compound 8h was tested in a 5-dose IC50 mode with 10-fold serial dilutions starting at 10 μM. For each of the kinases, a control compound in a 10-dose IC50 mode with 3-fold serial dilutions starting at 20 μM. The control compounds were GW5074 (3-(3,5-dibromo-4-hydroxy-benzylidene)-5-iodo-1,3-dihydro-indol-2-one) for BRAF, CK2a and RAF1, D4476 (4-[4-(2,3-dihydro-1,4-benzodioxin-6-yl)-5-(2-pyridinyl)-1H-imidazol-2-yl]benzamide) for CK1d; Wee1 inhibitor (4-(2-chlorophenyl)-9-hydroxypyrrolo[3,4-c]carbazole-1,3-(2H,6H)-dione) for WEE1 and saturosporine for other kinases. Reaction was carried out at 10 μM ATP concentration.

ABL1 (H396P) = biological target: T2, ABL1 (H396P) (Homo sapiens, UniProt P00519, H396P); assay: Inhibition of ABL mutants, kinase assay; format: biochemical; details: 10 μM ATP; 5-dose IC50 mode
T2 construct: purchased Reaction Biology Corporation
Description: (§2) Kinase assays were performed at Reaction Biology Corporation. To a freshly prepared buffer solution was added the target kinase at a concentration of […]. The contents were mixed gently, and then compound (8h) dissolved in DMSO was added to the reaction mixture in the appropriate concentration. The mixture was incubated at room temperature for 30 min. prior to addition of ATP to initiate the reaction. Compound (8h) was tested in a 5-dose IC50 mode with 10-fold serial dilutions starting at 10 μM. Staurosporine was used as a control compound in a 10-dose IC50 mode with 3-fold serial dilutions starting at 20 μM. Reaction was carried out at 10 μM ATP concentration.

ABL1 (M351T) = biological target: T3, ABL1 (M351T) (Homo sapiens, UniProt P00519, M351T); assay: Inhibition of ABL mutants, kinase assay; format: biochemical; details: 10 μM ATP; 5-dose IC50 mode
T3 construct: purchased Reaction Biology Corporation
Description: as §2

ABL1 (Q252H) = biological target: T4, ABL1 (Q252H) (Homo sapiens, UniProt P00519, Q252H); assay: Inhibition of ABL mutants, kinase assay; format: biochemical; details: 10 μM ATP; 5-dose IC50 mode
T4 construct: purchased Reaction Biology Corporation
Description: as §2

ABL1 (Y253F) = biological target: T5, ABL1 (Y253F) (Homo sapiens, UniProt P00519, Y253F); assay: Inhibition of ABL mutants, kinase assay; format: biochemical; details: 10 μM ATP; 5-dose IC50 mode
T5 construct: purchased Reaction Biology Corporation
Description: as §2

ABL1 (G250E) = biological target: T6, ABL1 (G250E) (Homo sapiens, UniProt P00519, G250E); assay: Inhibition of ABL mutants, kinase assay; format: biochemical; details: 10 μM ATP; 5-dose IC50 mode
T6 construct: purchased Reaction Biology Corporation
Description: as §2

ABL1 (T315I) = biological target: T7, ABL1 (T315I) (Homo sapiens, UniProt P00519, T315I); assay: Inhibition of ABL mutants, kinase assay; format: biochemical; details: 10 μM ATP; 5-dose IC50 mode
T7 construct: purchased Reaction Biology Corporation
Description: as §2

ABL2/ARG = biological target: T8, ABL2/ARG (Homo sapiens, UniProt P42684); assay: Inhibition of ABL mutants, kinase assay; format: biochemical; details: 10 μM ATP; 5-dose IC50 mode
T8 construct: purchased Reaction Biology Corporation
T8 sequence (P42684 whole entry): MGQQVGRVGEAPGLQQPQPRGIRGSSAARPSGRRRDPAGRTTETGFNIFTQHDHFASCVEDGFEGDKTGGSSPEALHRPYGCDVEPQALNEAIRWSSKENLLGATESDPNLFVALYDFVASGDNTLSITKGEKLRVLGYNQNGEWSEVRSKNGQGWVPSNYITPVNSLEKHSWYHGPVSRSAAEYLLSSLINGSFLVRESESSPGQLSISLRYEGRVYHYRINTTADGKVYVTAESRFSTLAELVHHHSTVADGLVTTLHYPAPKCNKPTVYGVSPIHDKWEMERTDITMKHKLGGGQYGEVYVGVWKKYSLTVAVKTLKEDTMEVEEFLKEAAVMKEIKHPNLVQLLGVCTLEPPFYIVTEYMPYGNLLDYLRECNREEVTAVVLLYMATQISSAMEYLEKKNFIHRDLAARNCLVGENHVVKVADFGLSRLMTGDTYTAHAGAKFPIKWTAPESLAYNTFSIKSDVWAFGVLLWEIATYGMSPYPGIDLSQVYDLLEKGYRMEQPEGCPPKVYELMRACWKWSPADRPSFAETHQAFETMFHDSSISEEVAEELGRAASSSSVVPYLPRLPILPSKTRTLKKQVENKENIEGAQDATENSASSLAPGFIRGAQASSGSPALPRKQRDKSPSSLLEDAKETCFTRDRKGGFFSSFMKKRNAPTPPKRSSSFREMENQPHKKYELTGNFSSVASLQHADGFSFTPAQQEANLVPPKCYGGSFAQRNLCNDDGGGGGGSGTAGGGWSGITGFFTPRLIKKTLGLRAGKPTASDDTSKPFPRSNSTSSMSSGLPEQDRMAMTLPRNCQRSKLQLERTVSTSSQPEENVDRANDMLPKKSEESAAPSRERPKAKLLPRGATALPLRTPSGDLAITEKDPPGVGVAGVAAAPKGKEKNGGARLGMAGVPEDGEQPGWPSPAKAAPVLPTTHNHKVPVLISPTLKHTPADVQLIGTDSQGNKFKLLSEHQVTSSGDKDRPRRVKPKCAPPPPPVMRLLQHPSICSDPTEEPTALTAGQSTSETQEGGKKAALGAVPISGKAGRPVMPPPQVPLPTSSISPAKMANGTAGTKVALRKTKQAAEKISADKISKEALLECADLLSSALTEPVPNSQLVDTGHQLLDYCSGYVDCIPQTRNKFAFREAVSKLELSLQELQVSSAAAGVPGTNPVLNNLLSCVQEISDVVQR
Description: as §2

ABL1 (E255K) = biological target: T9, ABL1 (E255K) (Homo sapiens, UniProt P00519, E255K); assay: Inhibition of ABL mutants, kinase assay; format: biochemical; details: 10 μM ATP; 5-dose IC50 mode
T9 construct: purchased Reaction Biology Corporation
Description: as §2

IC50 (MEK2): > 1000 nM
IC50 (ABL1 (H396P)): < 100 nM
IC50 (ABL1 (M351T)): < 100 nM
IC50 (ABL1 (Q252H)): < 100 nM
IC50 (ABL1 (Y253F)): < 100 nM
IC50 (ABL1 (G250E)): < 100 nM
IC50 (ABL1 (T315I)): < 100 nM
IC50 (ABL2/ARG): < 100 nM
IC50 (ABL1 (E255K)): < 100 nM
SMILES: CN1CCN(c2ccc(Nc3ncc(/C=C/C#N)c(NC4CCCC4)n3)cc2)CC1 [Compound 8h, 3-{4-Cyclopentylamino-2-[4-(4-methylpiperazin-1-yl)phenylamino]pyrimidin-5-yl}acrylonitrile]
GI50 (BXPC-3): 100 nM
GI50 (HL-60): 500 nM
GI50 (HT-29): 50 nM
GI50 (CEM/C2): 1500 nM
GI50 (U266): 1000 nM
GI50 (MES-SA/DX5): < 20 nM
GI50 (MES-SA): 20 nM
GI50 (U937): 100 nM
GI50 (HCT-116): 500 nM
GI50 (DU145): < 500 nM
GI50 (CEM): 1500 nM
GI50 (HPAF-II): 5000 nM
GI50 (32D-T315I): 500 nM
GI50 (MIA-PaCa-2): > 5000 nM
GI50 (PANC 03.27): 3000 nM
GI50 (ASPC-1): > 5000 nM
GI50 (HCT-15): 30 nM
GI50 (MOLT-4): 100 nM
GI50 (Z138C): 3000 nM
